ChEMBL document CHEMBL1158718, “4-Hydroxybenzoyl derivative from the aqueous extract of the hydroid Campanularia sp” (J Nat Prod, 2005)
Calls of active or inactive are those of the source. The calls are words filed in the database; no cut-off is given here.

Columns and labels:
ARP1 [1] = assay: Growth inhibition of human ARP1 cells up to 100 uM; type: functional, cell-based
[2] = molecular target: Histone deacetylase (Homo sapiens) (UniProt Q13547+O15379+Q9UBN7+Q92769+Q9UQL6+Q8WUI4+Q9BY41+Q96DB2+P56524+Q9UKV0+Q969S8); assay: Inhibition of HDAC in human ARP1 cells; type: cell-based
ARP1 [3] = assay: Induction of P21WAF1 gene expression in human ARP1 cells; type: functional, cell-based

| SMILES | Activity (ARP1 [1]) | Activity [2] | Activity (ARP1 [3]) |
| --- | --- | --- | --- |
| N=C(N)NCCCCNC(=O)C(=O)c1ccc(O)cc1 | inactive | inactive | – |
| O=C(CCCCCCC(=O)Nc1ccccc1)NO | – | – | Active |
